Assays:
antiplasmodial = conditions: reported in literature; cited from earlier work
SHIP 1−/− macrophages = test: Macrophage NO release assay in SHIP 1-/- macrophages; type: cell-based; conditions: FIG. 2
Protocol: For the NO release assay, wild-type or SHIP 1−/− macrophage cells were aliquoted into microtitre plates (5×10^4/well) and activated with […] endotoxin (LPS) in the presence or absence of test compound or DMSO carrier. The cells were incubated at 37° C., 5% CO2 for 24 hours and the culture supernatant was removed for NO determination using the Griess reagent. Alternatively, J774.1a macrophage cells were treated with 10 ng/ml of test compound dissolved in DMSO for 40 minutes prior to the addition of LPS. Culture supernatants were collected after 24 hr. for determination of NO concentration using the Griess reagent.

[1] = test system: bone marrow derived mast cells; test: Mast cell activation assay (β-hexosaminidase release); type: cell-based; conditions: FIG. 3
Protocol: For the mast cell activation assay, bone marrow derived mast cells were incubated at 4° C. with anti-DNP IgE for 1 hr. They were then washed twice with 23° C. Tyrode's buffer, and incubated in the presence of test compound or vehicle control for 30 minutes before a 15 minute treatment with DNP-human serum albumin. The degree of degranulation was determined by measuring the release of β-hexosaminidase.

antitrypanosomal = conditions: reported in literature; cited from earlier work
SHIP 1 enzyme = target: T1, SHIP 1 enzyme (Homo sapiens, UniProt Q92835); test: SHIP 1 enzyme assay (inorganic phosphate release, malachite green); type: biochemical; conditions: FIG. 1
T1 construct: hemagglutinin (HA); hexahistidine (His6); made in house
T1 sequence (Q92835 1-1189): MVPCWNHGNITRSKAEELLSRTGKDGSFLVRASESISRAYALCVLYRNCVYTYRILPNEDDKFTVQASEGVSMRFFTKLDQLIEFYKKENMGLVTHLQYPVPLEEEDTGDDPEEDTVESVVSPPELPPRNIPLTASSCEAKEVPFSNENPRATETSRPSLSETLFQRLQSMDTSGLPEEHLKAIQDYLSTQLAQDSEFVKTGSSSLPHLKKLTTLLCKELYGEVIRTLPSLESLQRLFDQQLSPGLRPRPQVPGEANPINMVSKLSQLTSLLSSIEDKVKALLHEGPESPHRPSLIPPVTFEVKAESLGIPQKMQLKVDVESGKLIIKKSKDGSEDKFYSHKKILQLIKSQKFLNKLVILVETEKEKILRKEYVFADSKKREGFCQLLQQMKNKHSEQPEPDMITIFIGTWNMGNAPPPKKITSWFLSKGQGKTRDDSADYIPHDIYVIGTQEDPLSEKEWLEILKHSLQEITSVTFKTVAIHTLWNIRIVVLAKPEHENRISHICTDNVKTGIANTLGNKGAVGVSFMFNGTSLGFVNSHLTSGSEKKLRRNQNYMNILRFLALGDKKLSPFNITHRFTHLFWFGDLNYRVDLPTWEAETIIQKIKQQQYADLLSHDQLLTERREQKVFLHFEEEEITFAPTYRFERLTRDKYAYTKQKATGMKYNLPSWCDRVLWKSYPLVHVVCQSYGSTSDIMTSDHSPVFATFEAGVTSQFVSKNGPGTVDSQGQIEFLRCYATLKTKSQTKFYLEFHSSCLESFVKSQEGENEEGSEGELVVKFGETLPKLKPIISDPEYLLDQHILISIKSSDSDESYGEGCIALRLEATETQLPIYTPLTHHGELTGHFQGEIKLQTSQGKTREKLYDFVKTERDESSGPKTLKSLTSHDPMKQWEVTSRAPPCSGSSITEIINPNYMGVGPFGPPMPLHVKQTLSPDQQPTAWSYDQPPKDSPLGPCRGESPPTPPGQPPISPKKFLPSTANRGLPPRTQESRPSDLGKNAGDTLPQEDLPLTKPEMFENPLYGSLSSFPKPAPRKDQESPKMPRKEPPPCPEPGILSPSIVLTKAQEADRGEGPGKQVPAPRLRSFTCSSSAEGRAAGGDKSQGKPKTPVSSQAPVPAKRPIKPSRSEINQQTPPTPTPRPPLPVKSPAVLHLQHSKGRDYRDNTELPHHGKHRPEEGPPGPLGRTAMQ
Protocol: The assay was performed in 96-well microtitre plates. SHIP 1 enzyme was produced with a hemagglutinin and a hexahistidine tag, from a mammalian expression vector. The His tag was employed to enhance purification. SHIP 1 enzyme (10 ng) was incubated with extract or DMSO for 15 minutes at room temperature before addition of 200 µM inositol-1,3,4,5-tetrakisphosphate. The reaction was allowed to proceed for 20 minutes at 37 degrees C. The amount of inorganic phosphate released was then assessed by the addition of malachite green reagent followed by an absorbance measurement at 650 nm.

SMILES: COC(=O)c1cc(O)c(O)c2c1[C@]1(C)CC[C@H]3C(C)(C)CCC[C@]3(C)[C@H]1C2 [Pelorol, pelorol]
- antiplasmodial effects (antiplasmodial): weak
- Inhibition of NO release in SHIP 1−/− macrophages (SHIP 1−/− macrophages): not observed
- IgE induced mast cell degranulation [1]: significantly reduced
- antitrypanosomal effects (antitrypanosomal): weak
- Activation of SHIP 1 in enzyme assay (assay-guided fractionation) (SHIP 1 enzyme): active compound

From patent US8765994B2, “Ship 1 modulators” (The University of British Columbia, priority 2001, dated 2014)
